Results from patent publication US12297453B2, “Generation of norepinephrine neurons from human stem cells” (Wisconsin Alumni Research Foundation, priority 2020, dated 2025).

Legend:
hESCs (H9 line) = assay: Patterning of hESCs to hindbrain R1 neuroepithelial cells with a CHIR99021 dose series (RT-qPCR, flow cytometry, immunocytochemistry); format: cell-based, human
Protocol: (§1) On day 5, change the medium without SB431542. […] Cells were feed daily.
(§2) gRNA was designed according to Benchling. Donor plasmid was generated by NEBuilder® HiFi DNA Assembly Master Mix (NEB, E2621S). Briefly, hPSCs were digested by TrypLE Express. Gene Pulser Xcell (Bio-Rad) was used for CRISPR/Cas9 delivery. Two-million cells were electroporated with 15 μg of sgRNA plasmid (pLenti-CRISPR) with 30 μg donor plasmid. Cells were plated at ˜150,000 cells/well of 6-well plate. Starting 24 hours after electroporation, 0.5 μg/ml puromycin were added to the culture medium. After 3 days of puromycin selection, hPSCs were switched to their normal culture medium and fed every other day until approximately 1-2 weeks after electroporation when distinct colonies were established. • Cell transplantation: Small aggregates of NE neural progenitors (day 10-day 12) were collected and suspended in artificial cerebral spinal fluid (aCSF) containing Rock inhibitor (0.5 μM), at a concentration of 100,000 cells/μl. 1 μl of cells were slowly injected into the left cortex (AP=+0.0 mm, ML=+1.8 mm, DV=−1.7 mm, from skull) of adult SCID mice (8-12 weeks) that were anesthetized with 1%-2% isoflurane mixed in oxygen. • Immunocytochemistry and flow cytometry: Immunocytochemistry was performed as described previously. See Huang et al., 2016, Sci Rep, 6:32600, doi:10.1038/srep32600. In brief, cells on coverslips were fixed in 4% neutral-buffered paraformaldehyde (PFA) for 10 minutes (min) at room temperature. Following rinsing with PBS, these cells were incubated in 0.2% Triton X-100 (in phosphate buffered saline (PBS)) for 10 min followed by 10% donkey serum (in PBS) at room temperature for 1 hour (h). The cells were then incubated with primary antibodies diluted in 5% donkey serum in 0.1% Triton X100 (in PBS) at 4° C. overnight, followed by fluorescently conjugated secondary antibodies at room temperature for 30 min. The nuclei were stained with Hoechst. Images were collected with a Nikon A1 laser-scanning confocal microscope. Flow cytometry was performed using Transcription Factor Buffer Set which is designed for transcription factor staining following manufacturer's instruction. Briefly, single cells were prepared using TrypLE Express Enzyme and fixed in the fixation buffer provided by the kit at 2-8° C. for 45 min. After 3 washings with the permeable buffer, primary antibodies were added to cells for 45 min at 2-8° C. in a light-tight box. Cells were washed three times before fluorescently conjugated secondary antibodies. Second antibodies were incubated with cells for 45 minutes at 2-8° C. in a light-tight box and followed by washing three times. After the last wash, cells were suspended in washing buffer and analyzed by flow cytometry (BD LSR or BD LSRII). Data analysis was performed using FlowJo. • ELISA: To detect NE release into medium during neuronal differentiation, supernatant was collected at indicated time points along differentiation. Enzyme-linked immunosorbent assay (ELISA) were performed using a Noradrenaline (Norepinephrine) ELISA Assay Kit (EAGLE, NOR31-K01) following the manufacturer's instructions. • Electrophysiology: Whole-cell patch-clamp recordings were made from human ESC-derived NE neurons at 4 weeks. Briefly, the NE neurons were held at −70 mV to record the Na+/K+ channel activities with voltage-clamp model. For recording action potentials, the cells were held at 0 pA with the current-clamp model, and with the steps of injected currents from −50 pA to +50 pA. The bath solution consisted of 135 mM NaCl, 3 mM KCl, 2 mM CaCl2), 1 mM MgCl2, 10 mM HEPES, 11 mM glucose, 10 mM sucrose, pH7.4. […]

[1] = tested on: human ESC-derived NE neurons; assay: Whole-cell patch clamp recording of spontaneous action potential firing; format: cell-based; settings: 1 mM; reversed upon washing away
Protocol: gRNA was designed according to Benchling. Donor plasmid was generated by NEBuilder® HiFi DNA Assembly Master Mix (NEB, E2621S). Briefly, hPSCs were digested by TrypLE Express. Gene Pulser Xcell (Bio-Rad) was used for CRISPR/Cas9 delivery. Two-million cells were electroporated with 15 μg of sgRNA plasmid (pLenti-CRISPR) with 30 μg donor plasmid. Cells were plated at ˜150,000 cells/well of 6-well plate. Starting 24 hours after electroporation, 0.5 μg/ml puromycin were added to the culture medium. After 3 days of puromycin selection, hPSCs were switched to their normal culture medium and fed every other day until approximately 1-2 weeks after electroporation when distinct colonies were established. • Cell transplantation: Small aggregates of NE neural progenitors (day 10-day 12) were collected and suspended in artificial cerebral spinal fluid (aCSF) containing Rock inhibitor (0.5 μM), at a concentration of 100,000 cells/μl. 1 μl of cells were slowly injected into the left cortex (AP=+0.0 mm, ML=+1.8 mm, DV=−1.7 mm, from skull) of adult SCID mice (8-12 weeks) that were anesthetized with 1%-2% isoflurane mixed in oxygen. • Immunocytochemistry and flow cytometry: Immunocytochemistry was performed as described previously. […] After the last wash, cells were suspended in washing buffer and analyzed by flow cytometry (BD LSR or BD LSRII). […]

hESC-derived NE neurons = assay: NE content in supernatant of NE neuron culture by ELISA; format: cell-based, human
Protocol: as §2, with “LSRII).” for “LSRII). Data analysis was performed using FlowJo. • ELISA: To detect NE release into medium during neuronal differentiation, supernatant was collected at indicated time points along differentiation. Enzyme-linked immunosorbent assay (ELISA) were performed using a Noradrenaline (Norepinephrine) ELISA Assay Kit (EAGLE, NOR31-K01) following the manufacturer's instructions. • Electrophysiology: Whole-cell patch-clamp recordings were made from human ESC-derived NE neurons at 4 weeks. Briefly, the NE neurons were held at −70 mV to record the Na+/K+ channel activities with voltage-clamp model. For recording action potentials, the cells were held at 0 pA with the current-clamp model, and with the steps of injected currents from −50 pA to +50 pA. The bath solution consisted of 135 mM NaCl, 3 mM KCl, 2 mM CaCl2), 1 mM MgCl2, 10 mM HEPES, 11 mM glucose, 10 mM sucrose, pH7.4.”

[2] = tested on: GRABNE1m sensor-expressing NE neurons; assay: Fluorescence imaging of GRABNE1m sensor cells; format: cell-based, human; settings: for GRABNE1m sensor intensity (extracellular norepinephrine): norepinephrine reuptake inhibitor treatment
[3] = tested on: human NE neuron progenitor cells; settings: in neural differentiation medium
Description: as §1

## Cc1c[nH]c(-c2cnc(NCCNc3ccc(C#N)cn3)nc2-c2ccc(Cl)cc2Cl)n1 [CHIR99021]
hESCs (H9 line); 1 μM, day 6
  cells expressing EN1 by immunocytochemistry: majority of the cells
  cells positive for OTX2 and HOXA2 by immunocytochemistry: few or no cells
hESCs (H9 line); 6 days, mRNA level
  concentration above which EN1, EN2, PAX2 mRNA began to down-regulate and HOXA2, GBX2 increased: above 0.6 μM
hESCs (H9 line); dose increment, 6 days
  concentration at which PHOX2B and PHOX2A reached their highest level: around 1 μM
hESCs (H9 line); increasing concentrations over 6 days
  expression of midbrain transcription factor genes EN1, EN2, PAX2: upregulated
hESCs (H9 line); increasing concentrations over 6 days, RT-qPCR and flow cytometry
  expression of OTX2 at mRNA and protein levels: down-regulated

## Clc1cccc(Cl)c1N=C1NCCN1 [Clonidine]
[1]
  sAP firing rate: reduced the sAP firing rating significantly

## CNCCCC12CCC(c3ccccc31)c1ccccc12 [Maprotiline]
hESC-derived NE neurons
  NE content in the supernatants: increased the NE content
[2]
  GRABNE1m sensor intensity (extracellular norepinephrine): increase

## CNCCC(Oc1ccccc1OC)c1ccccc1 (centres unmarked) [Nisoxetine]
hESC-derived NE neurons
  NE content in the supernatants: increased the NE content
[2]
  GRABNE1m sensor intensity (extracellular norepinephrine): increase

## NC[C@H](O)c1ccc(O)c(O)c1 [Norepinephrine]
[2]; 1 μM
  intensity of GRABNE1m sensor fluorescence: increased

## CCOc1ccccc1OC(c1ccccc1)C1CNCCO1 (centres unmarked) [Reboxetine]
hESC-derived NE neurons
  NE content in the supernatants: increased the NE content
[2]
  GRABNE1m sensor intensity (extracellular norepinephrine): increase

## CNCC[C@@H](Oc1ccccc1C)c1ccccc1 [Tomoxetine]
hESC-derived NE neurons
  NE content in the supernatants: increased the NE content
[2]
  GRABNE1m sensor intensity (extracellular norepinephrine): increase

## Nc1ncnc2c1ncn2[C@@H]1O[C@@H]2COP(=O)(O)O[C@H]2[C@H]1O [cAMP]
[3]
  yield of human TH+/DBH+ NE neurons: boost yield
